Data published in patent publication US9708311B2, “Benzimidazole derivatives as EP4 antagonists” (BAYER PHARMA AKTIENGESELLSCHAFT, priority 2012, dated 2017).

Target: human EP4 receptor (Homo sapiens (Human), UniProt P35408)
Test: Test for antagonism of the human EP4 receptor signal (cAMP HTRF)
Type: cell-based
Details: cells expressing hEP4, PGE2 at EC80 (0.4 nM), cAMP TR-FRET; read-out: Antagonism hEP4 IC50
Excerpt: The binding of the agonist prostaglandin E2 (PGE2) to the EP4 subtype of human hPGE2-R (hEP4-R) induces the activation of membrane-bound adenylate cyclases and thus the formation of cAMP. In the presence of the phosphodiesterase inhibitor IBMX, this cAMP accumulates intracellularly and is employed in a competitive detection procedure after cell lysis. In this procedure, it competes with a fluorescence-labelled cAMP (cAMP-d2) for binding to an Eu cryptate-labelled anti-cAMP antibody. In the absence of cellular cAMP, a complex is formed between the Eu cryptate-labelled anti-cAMP antibody and the cAMP-d2 molecule, which after excitation at 337 nm makes possible an energy transfer based on FRET (fluorescence resonance energy transfer) to the cAMP-d2 tracer and leads to a long-lasting fluorescence signal (emission at 665 and 620 nm). This signal is time-resolved, i.e. measured in a suitable measuring apparatus after decay of the background fluorescence (time resolved; TR-FRET). The wave ratio determination (emission 665 nm/emission 620 nm*10000) moreover makes it possible to standardize individual measurement differences in the added amounts of the detection reagents.
By means of prostaglandin E2 administration and increase in the intracellular cAMP, a lowering of the FRET signal occurs, which in the case of an antagonistic substance action increases again.
A further 20 min at room temperature later, the cell lysate is measured according to the manufacturer's instructions in a TR-FRET-suitable measuring apparatus (compare cAMP HTRF assay kit: Cisbio International 62AM6PEJ high range)

human EP4 receptor, sequence (P35408 whole entry): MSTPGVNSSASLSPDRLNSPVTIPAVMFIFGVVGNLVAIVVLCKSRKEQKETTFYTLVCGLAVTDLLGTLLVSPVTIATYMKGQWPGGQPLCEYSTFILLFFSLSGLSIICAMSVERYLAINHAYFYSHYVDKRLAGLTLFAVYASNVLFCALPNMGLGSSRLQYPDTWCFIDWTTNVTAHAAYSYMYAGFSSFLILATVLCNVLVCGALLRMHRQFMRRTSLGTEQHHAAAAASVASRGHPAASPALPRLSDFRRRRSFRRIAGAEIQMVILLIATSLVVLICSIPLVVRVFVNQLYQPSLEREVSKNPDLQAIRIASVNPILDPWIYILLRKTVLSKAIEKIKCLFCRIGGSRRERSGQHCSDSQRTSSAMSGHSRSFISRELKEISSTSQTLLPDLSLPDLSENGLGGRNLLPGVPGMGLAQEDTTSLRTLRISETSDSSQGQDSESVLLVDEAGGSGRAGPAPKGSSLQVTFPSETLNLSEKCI

IC50 | Compound
13.1 nM | COCCn1c(-c2ccc3c(c2)c2ccccc2n3CC2CC2)nc2cc(C(=O)O)ccc21 [Example 36, 2-[9-(Cyclopropylmethyl)-9H-carbazol-3-yl]-1-(2-methoxyethyl)-1H-benzimidazole-5-carboxylic acid]
3780 nM | CCOC(=O)c1ccc2c(c1)nc(-c1ccc3c(c1)c1ccccc1n3CC)n2CCN1CCCC1 [Example 37, Ethyl 2-(9-ethyl-9H-carbazol-3-yl)-1-[2-(pyrrolidin-1-yl)ethyl]-1H-benzimidazole-5-carboxylate]
742 nM | CCn1c2ccccc2c2cc(-c3nc4cc(C(=O)O)ccc4n3CCN3CCCC3)ccc21 [Example 38, 2-(9-Ethyl-9H-carbazol-3-yl)-1-[2-(pyrrolidin-1-yl)ethyl]-1H-benzimidazole-5-carboxylic acid]
768 nM | CCn1c2ccccc2c2cc(-c3nc4cc(C(=O)NS(=O)(=O)C(C)(C)C)ccc4n3CCOC)ccc21 [Example 39, N-(tert-Butylsulphonyl)-2-(9-ethyl-9H-carbazol-3-yl)-1-(2-methoxyethyl)-1H-benzimidazole-5-carboxamide]
78.3 nM | CCn1c2ccccc2c2cc(-c3nc4cc(C(=O)NS(=O)(=O)C5(C)CC5)ccc4n3CCOC)ccc21 [Example 40, 2-(9-Ethyl-9H-carbazol-3-yl)-1-(2-methoxyethyl)-N-[(1-methylcyclopropyl)sulphonyl]-1H-benzimidazole-5-carboxamide]
96.7 nM | CCn1c2ccccc2c2cc(-c3nc4cc(C(=O)NC)ccc4n3CCOC)ccc21 [Example 41, 2-(9-Ethyl-9H-carbazol-3-yl)-1-(2-methoxyethyl)-N-methyl-1H-benzimidazole-5-carboxamide]
239 nM | CCn1c2ccccc2c2nc(-c3nc4cc(C(=O)O)ccc4n3CCOC)ccc21 [Example 42, 2-(5-Ethyl-5H-pyrido[3,2-b]indol-2-yl)-1-(2-methoxyethyl)-1H-benzimidazole-5-carboxylic acid]
54.6 nM | CCn1c2ccc(OC)cc2c2cc(-c3nc4cc(C(=O)O)ccc4n3CC3CC3)ccc21 [Example 43, 1-(Cyclopropylmethyl)-2-(9-ethyl-6-methoxy-9H-carbazol-3-yl)-1H-benzimidazole-5-carboxylic acid]
421 nM | CCn1c2ccccc2c2cc(-c3nc4cc(C#N)ccc4n3CCOC)ccc21 [Example 44, 2-(9-Ethyl-9H-carbazol-3-yl)-1-(2-methoxyethyl)-1H-benzimidazole-5-carbonitrile]
13.4 nM | CCn1c2ccccc2c2cc(-c3nc4cc(-c5nnn[nH]5)ccc4n3CCOC)ccc21 [Example 45, 9-Ethyl-3-[1-(2-methoxyethyl)-5-(1H-tetrazol-5-yl)-1H-benzimidazol-2-yl]-9H-carbazole]
12.4 nM | CCn1c2ccccc2c2cc(-c3nc4cc(-c5noc(=O)[nH]5)ccc4n3CCOC)ccc21 [Example 46, 3-[2-(9-Ethyl-9H-carbazol-3-yl)-1-(2-methoxyethyl)-1H-benzimidazol-5-yl]-1,2,4-oxadiazol-5(4H)-one]
25.6 nM | CCn1c2ccccc2c2cc(-c3nc4cc(C(=O)NS(=O)(=O)c5cccc(C)c5)ccc4n3CCOC)ccc21 [Example 47, 2-(9-Ethyl-9H-carbazol-3-yl)-1-(2-methoxyethyl)-N-[(3-methylphenyl)sulphonyl]-1H-benzimidazole-5-carboxamide]
99.5 nM | CCn1c2ccccc2c2cc(-c3nc4cc(C(=O)NS(=O)(=O)c5ccc(C)cc5)ccc4n3CCOC)ccc21 [Example 48, 2-(9-Ethyl-9H-carbazol-3-yl)-1-(2-methoxyethyl)-N-[(4-methylphenyl)sulphonyl]-1H-benzimidazole-5-carboxamide]
61.5 nM | CCn1c2ccccc2c2cc(-c3nc4cc(C(=O)NS(=O)(=O)c5ccc(Cl)cc5)ccc4n3CCOC)ccc21 [Example 49, N-[(4-Chlorophenyl)sulphonyl]-2-(9-ethyl-9H-carbazol-3-yl)-1-(2-methoxyethyl)-1H-benzimidazole-5-carboxamide]
33.6 nM | CCn1c2ccccc2c2cc(-c3nc4cc(C(=O)NS(=O)(=O)c5ccccc5)ccc4n3CCOC)ccc21 [Example 50, 2-(9-Ethyl-9H-carbazol-3-yl)-1-(2-methoxyethyl)-N-(phenylsulphonyl)-1H-benzimidazole-5-carboxamide]
95.5 nM | CCn1c2ccccc2c2cc(-c3nc4cc(C(=O)NS(=O)(=O)c5ccc6ccccc6c5)ccc4n3CCOC)ccc21 [Example 51, 2-(9-Ethyl-9H-carbazol-3-yl)-1-(2-methoxyethyl)-N-(2-naphthylsulphonyl)-1H-benzimidazole-5-carboxamide]
35.9 nM | CCn1c2ccccc2c2cc(-c3nc4cc(C(=O)NS(=O)(=O)c5ccccc5OC)ccc4n3CCOC)ccc21 [Example 52, 2-(9-Ethyl-9H-carbazol-3-yl)-1-(2-methoxyethyl)-N-[(2-methoxyphenyl)sulphonyl]-1H-benzimidazole-5-carboxamide]
35.3 nM | CCn1c2ccccc2c2cc(-c3nc4cc(C(=O)NS(=O)(=O)c5ccccc5C)ccc4n3CCOC)ccc21 [Example 53, 2-(9-Ethyl-9H-carbazol-3-yl)-1-(2-methoxyethyl)-N-[(2-methylphenyl)sulphonyl]-1H-benzimidazole-5-carboxamide]
17.6 nM | CCn1c2ccccc2c2cc(-c3nc4cc(C(=O)NS(=O)(=O)c5ccccc5OC(F)(F)F)ccc4n3CCOC)ccc21 [Example 54, 2-(9-Ethyl-9H-carbazol-3-yl)-1-(2-methoxyethyl)-N-{[2-(trifluoromethoxy)phenyl]-sulphonyl}-1H-benzimidazole-5-carboxamide]
117 nM | CCn1c2ccccc2c2cc(-c3nc4cc(C(=O)NS(=O)(=O)Cc5ccccc5)ccc4n3CCOC)ccc21 [Example 55, N-(Benzylsulphonyl)-2-(9-ethyl-9H-carbazol-3-yl)-1-(2-methoxyethyl)-1H-benzimidazole-5-carboxamide]
238 nM | CCn1c2ccccc2c2cc(-c3nc4cc(C(=O)NS(=O)(=O)CCc5cccc(Cl)c5)ccc4n3CCOC)ccc21 [Example 56, N-{[2-(3-Chlorophenyl)ethyl]sulphonyl}-2-(9-ethyl-9H-carbazol-3-yl)-1-(2-methoxyethyl)-1H-benzimidazole-5-carboxamide]
239 nM | CCn1c2ccccc2c2cc(-c3nc4cc(C(=O)NS(=O)(=O)CCc5ccccc5C)ccc4n3CCOC)ccc21 [Example 57, 2-(9-Ethyl-9H-carbazol-3-yl)-1-(2-methoxyethyl)-N-{[2-(2-methylphenyl)ethyl]sulphonyl}-1H-benzimidazole-5-carboxamide]
174 nM | CCn1c2ccccc2c2cc(-c3nc4cc(C(=O)NS(=O)(=O)Cc5ccc(F)cc5)ccc4n3CCOC)ccc21 [Example 58, 2-(9-Ethyl-9H-carbazol-3-yl)-N-[(4-fluorobenzyl)sulphonyl]-1-(2-methoxyethyl)-1H-benzimidazole-5-carboxamide]
16.9 nM | CCn1c2ccccc2c2cc(-c3nc4cc(C(=O)NS(=O)(=O)CCOC)ccc4n3CCOC)ccc21 [Example 59, 2-(9-Ethyl-9H-carbazol-3-yl)-1-(2-methoxyethyl)-N-[(2-methoxyethyl)sulphonyl]-1H-benzimidazole-5-carboxamide]
19.8 nM | CCn1c2ccccc2c2cc(-c3nc4cc(C(=O)NS(=O)(=O)Cc5c(Cl)cccc5Cl)ccc4n3CCOC)ccc21 [Example 60, N-[(2,6-Dichlorbenzyl)sulphonyl]-2-(9-ethyl-9H-carbazol-3-yl)-1-(2-methoxyethyl)-1H-benzimidazole-5-carboxamide]
